Entries after “also recorded” stand apart in the source; their conditions may differ. Where a SMILES comes first, the peptide text is derived from it. The star is where a group is joined. Palmitoyl = CCCCCCCCCCCCCCCC(=O)*
Key:
[1] = tested on: HIV-1 infection of TZM-bl cells; experiment: HIV-1 infection assay (β-galactosidase luminescence reporter); assay type: cell-based; details: infectivity enhancing if n-fold at 1.3 µM larger than 2
Protocol: HIV‐1 Infection Assay: The effect of peptide fibrils on HIV‐1 infection was studied via a luminescence assay for β‐galactosidase, which was reported by TZM‐bl cells upon infection. 10000 TZM‐bl cells were seeded in 180 µl supplemented DMEM one day prior infection. The cells were inoculated with 20 µl PNF solution 1:1 (v/v) mixed with virus (1:500 dilution) after an incubation time of 10 min. The HIV‐1 infection assay was conducted in three technical replicates and repeated in three independent experiments unless stated otherwise. The assay was conducted as described before.^[ [20] ^]

[2] = Zeta-potential measurement; assay type: physicochemical; details: fibrils 1 mg mL-1 in PBS, 60 µL diluted in 600 µL 1 mM KCl; triplicates
Protocol: Zeta‐potential: 60 µL of the peptides (1 mg mL^−1) were diluted in 600 µL, 1 mM KCl solution and placed in a disposable folded capillary cuvette. All zeta‐potential measurements (Zetasizer, Malvern Instruments) were conducted in triplicates for each sample.

ThT fluorescence = assay type: physicochemical; design: key: + = ThT active; − = no ThT fluorescence observed; details: 1 mg mL-1 in PBS; ThT-active if fluorescence at least twice the control (PBS with 10% DMSO)
Protocol: ThT‐fluorescence: 20 µL 50 µM of ThT solution in PBS was pipetted in a black 384 well‐plate and 4 µL of the nanofibril solution 1 mg mL^−1 were added. For reference PBS with 10% DMSO (4 µL) instead of fibril solution was added. Subsequently, fluorescence emission was recorded λem = 488 nm upon excitation at λex = 440 nm with 10 nm bandwidth and multiple reads per well (3 × 3) using a Spark 20 M microplate reader (Tecan Group, Ltd). Data processing was performed with Origin software. A peptide fibril was considered as ThT‐active if the fluorescence intensity was at least twice as strong compared to the control (PBS containing 10% DMSO).

[3] = ATR-FT-IR β-sheet content; assay type: physicochemical; details: ATR-IR of lyophilized fibril solutions (1 mg mL-1, PBS); peak integration at 1630 cm-1 in 2nd derivative of amide I region
Protocol: ATR‐FT‐IR: ATR‐IR spectra acquisition and the calculation of β−sheet content were conducted according to a previous report.^[ [20] ^] Briefly, FT‐IR spectra of solid samples were recorded after lyophilization of fibril solutions using a Bruker Tensor II spectrometer equipped with a diamond crystal as ATR element with a spectral resolution of 2 cm–1, each spectrum was an average of 64 scans. The data was processed with Origin software. β−sheet amount was determined by calculating the integral of the peak at 1630 cm^−1 (β‐sheet) relative to the integral between 1650–1700 cm^−1 (native structure) from the 2nd derivative of the FT‐IR spectra.

HeLa cells = experiment: Cell-PA interaction by confocal laser scanning microscopy; assay type: cell-based; details: peptide 20 µg mL-1 added for 30 min, washed, Proteostat stain
Protocol: Confocal laser scanning microscopy and degradation study with PA1‐3 and HeLa cells: HeLa cells were seeded one day prior to conducting the assay (40000/well) in an 8‐well IBIDI slide. 4 µL of the preformed peptide fibrils (1 mg mL^−1) were diluted with 4 µL Proteostat (Enzo Life Science, 1 µL stock in 999 µL PBS) and incubated for 10 min and further diluted with medium to receive a final peptide concentration of 20 µg mL^−1. The nucleus of the HeLa cells was stained with Hoechst 33 342 (NucBlue, Thermo Fisher Scientific). The peptide solution was transferred to the HeLa cells and incubated for 30 min at 37°C before washing three times with PBS. The interaction of fibril clusters with cells was monitored after 30 min incubation time on a Stellaris 8 confocal laser scanning microscope (Leica) equipped with a 20x air objective and laser excitation wavelengths of 405 nm (Hoechst) and 561 nm (Proteostat). For the evaluation of aggregate degradation, the samples were further incubated at 37°C for 3 d and analyzed without any additional washing step. The evaluation of aggregate size and number was conducted by analyzing Proteostat stained aggregates via the 3D objects counter function of ImageJ 1.53f51 for 3 individual measurements (area 581.25 µm × 581.25 µm). […] The number of aggregates larger than 10 µm^2 were counted via the 3D objects counter function of ImageJ 1.53f51. The mean number and standard deviations were determined by averaging at least three technical triplicates.
Figure S6 Laser scanning microscopy micrographs of A cells only (control), and Proteostat-stained (red) peptides B EF-
C ([…]), C PA1, D PA2, E PA3, F P1, G P2, H P3 added to HeLa cells (nucleus in blue). The peptides (20 µg mL-
1) were added to cells for 30 min, washed and analyzed. […]

[4] = TEM morphology of peptide assemblies; assay type: physicochemical; details: diluted from DMSO stock (10 mg mL-1) to 1 mg mL-1 in PBS, incubated 1 d at rt
Protocol: (§1) Transmission electron microscopy (TEM) measurements, Thioflavin (ThT), zeta‐potential measurements for fibril characterization, ATR‐IR spectra acquisition and the calculation of β−sheet were prepared and conducted analogous to a previous report.^[ [20], [86] ^] […] Fibrils were defined as distinct, if no visible structures could be identified in fluorescence and brightfield microscopy. […] The derived count rate of the zeta‐potential measurement was used as information on the light scattering intensity and turbidity of the sample as a further indicator for microscopic aggregation.^[ [90] ^]
TEM: 5 µL of fibrils (1 mg mL^−1) were placed on 300 mesh, Formvar layered copper grids. After 10 min incubation time, the grids were staining with 4% uranyl acetate solution for 2.5 min. After
three washing steps with dd H2O excess solvent was removed by filter paper. Measurements
were performed on a Jeol 1400 electron microscope with 120 kV acceleration voltage.

[5] = Microscopic aggregation (fluorescence / confocal microscopy, derived count rate); assay type: physicochemical; details: fibrils preformed at 1 mg mL-1 in PBS; ThT or Proteostat stain, widefield or confocal microscopy; derived count rate > 1000 kcps as criterion
Protocol: as §1
Fluorescence microscopy: 1 µL Fibrils (1 mg mL^−1) were stained with 9 µL, 50 µM ThT. 10 µL of the stained fibrils (0.1 mg mL^−1) were placed on a microscopy glass. Fluorescence microscopy measurements were performed on a Leica DMi8 microscope with 10x air objective and equipped with a Leica MC170 HD camera with a filter setting λem = 527/30 nm upon excitation at λex = 480/40 nm) and processed with the Leica LASX software.
7 Effects of PA modifications on properties and activity
To investigate the effects of modification in the PA sequence, we created various peptide amphiphiles derived from PA1 by varying the (I) hydrophobic moiety, (II) the linkage chemistry and (III) the peptide sequence (Figure S12, SI chapter 7.1 – 7.3). The color code for sequence representation is yellow for the hydrophobic moiety, blue for cationic amino acids, red for non-polar amino acids, purple for polar uncharged amino acids, and green for anionic amino acids. To be concise, only the summarized information will be discussed, all original data for the peptides are summarized in the (Figure S26 - […]
Figure S12 Summarized overview of peptide amphiphile library in which systematic variations the original sequence […]
chemistry and (III) the peptide sequence on infectivity enhancement and degradability (see SI chapter 7.1 – 7.3).
In the following section a compound is considered infectivity enhancing if n-fold infectivity at 1.3 µM is larger than 2. A compound is considered to form µm-sized aggregates if visible particles were observed in widefield microscopy (brightfield or ThT-staining filter, objective 10x) or confocal […]
than 1000 kcps in Zeta-Potential measurements.
For the degradability only the PAs which could be stained with Proteostat (Figure S26) and were visible in microscopy (Figure S15, Figure S18, Figure S21, and Figure S22) were studied in detail. To determine […]
whether a PA is degraded or not, Proteostat stained PAs which are added to Hela cells (2 µg peptide added to 20.000 cells) and studied via confocal laser scanning microscopy. […]
In the following, we will distinguish between three aggregation types for fibrillar structures: Fibrils which were not aggregating (below resolution limit of the microscope, approx. 650 nm), moderately aggregating (< 50 µm2) and aggregating to large particles (> 50 µm 2).
7.1 Effects of hydrophobic moiety exchange on properties and activity
To investigate the effects of varying hydrophobic moieties on assembly, aggregation and activity , we

Row | SMILES | infectivity enhancement of HIV-1 (in words) [1] | Zeta-Potential [2] | ThT fluorescence (ThT fluorescence) | β-sheet content [3] | association with cellular membranes (HeLa cells) | morphology of peptide assemblies / fibril formation (TEM) [4] | formation of µm-sized aggregates (in words) [5]
1 | CCCCCCCCCCCCCCCC(=O)N[C@H](C(=O)N[C@H](C(=O)N[C@H](C(=O)N[C@@H](C)C(=O)N[C@@H](C)C(=O)N[C@@H](C)C(=O)N[C@@H](CCC(=O)O)C(=O)N[C@@H](CCC(=O)O)C(=O)N[C@@H](CCC(=O)O)C(N)=O)C(C)C)C(C)C)C(C)C [PA3] (Palmitoyl-VVVAAAEEE-NH2) | Inactive | −29.8 ± 2.7 mV | + | 61% | does not associate with cells | distinct fibrils | did not bundle or adopt µm‐sized aggregates in PBS
2 | CCCCCCCCCCCCCCCC(=O)N[C@@H](C)C(=O)NCC(=O)NCC(=O)N[C@@H](CCCNC(=N)N)C(=O)N[C@H](C(=O)N[C@@H](CCCCN)C(N)=O)C(C)C [C16-AGGRVK-NH2] (Palmitoyl-AGGRVK-NH2) |  |  |  |  | did not associate with cells |  | not forming µm-sized aggregates and forming too few/less aggregates, respectively; also recorded: no aggregation

Reference: paper PMC11468294, “Peptide Amphiphiles as Biodegradable Adjuvants for Efficient Retroviral Gene Delivery” (Advanced Healthcare Materials, 2023)
